# From paper PMC4028696, “Development of a screen to identify selective small molecules active against patient-derived metastatic and chemoresistant breast cancer cells” (Breast Cancer Research : BCR, 2013)
# Legend:
# [1] = test system: T47D cells; test: BrdU proliferation and cell cycle analysis; format: cell-based, human; details: 15 μM, 24 or 48 hours vs DMSO
# Description: (§1) Cells were seeded in six-well plates (BD Falcon) in their respective media at different densities to attain 70% to 80% confluency at the end of the assay. In order to compare the proliferation rate of established cell lines compared to patient-derived cells, 10 μM of 5-bromo-2-deoxyuridine (BrdU) (Sigma) was added to the culture media for 30 minutes or 6 hours in triplicate. To determine the impact of C-6 on the cell cycle, cells were treated with 15 μM C-6 or 0.02% (v/v) DMSO vehicle in the corresponding media containing 2% FBS for 24 and 48 hours in triplicate followed by treatment with 10 μM BrdU for 30 minutes. Immediately following BrdU treatment, floating cells were collected and adherent cells were trypsinized. Floating and adherent cells were combined, washed with HBSS containing 2% FBS, fixed with 70% ethanol and stored overnight at -20°C. Cells were then treated with 2 M HCl containing 0.5% Triton X-100 (EMD Millipore) for 30 minutes at room temperature and were washed with 0.1 M sodium tetraborate (Sigma) at pH = 8.5. Next, cells were blocked with staining buffer, which consisted of 1% BSA, 0.5% Tween-20 (Fisher Scientific) in PBS, for five minutes and were stained with a mouse monoclonal BrdU antibody (Developmental Studies Hybridoma Bank, Iowa City, IA, USA) for one hour on ice. Cells were subsequently washed and stained with anti-mouse Alexa Fluor® 488 (Life Technologies) for 30 minutes on ice, washed, stained with 5 μg/mL of propidium iodide (EMD Millipore) and passed through a 70-μm cell strainer. Cell suspensions were analyzed using a FACScan flow cytometer and the resulting data were analyzed with Flow Jo software. The average ± SD of three wells for each condition was calculated.
# [2] = test system: MCF-7 cells; test: BrdU proliferation and cell cycle analysis; format: cell-based, human; details: MCF-7, 15 μM, 24 or 48 hours vs DMSO
# Description: as §1
# [3] = test system: MCF-10A cells; test: BrdU proliferation and cell cycle analysis; format: cell-based, human; details: 15 μM, 24 or 48 hours vs DMSO
# Description: as §1
# [4] = test system: MDA-MB-231 cells; test: BrdU proliferation and cell cycle analysis; format: cell-based, human; details: MDA-MB-231, 15 μM, 24 or 48 hours vs DMSO
# Description: as §1
# [5] = test system: hTERT-HMEC cells; test: Live/dead assay, monolayer; format: cell-based, human; details: 20 μM, five days
# Description: (§2) The hTERT-HMEC and PE1007070 cells were seeded in black wall clear bottom 96-well plates (Greiner Bio-one, Monroe, NC, USA) in 100 μL of modified M87 media at varying densities to achieve 80% to 90% confluency at the end of the assay. After 24 hours, the media were aspirated and the cells were treated with 20 μM C-6 or the corresponding 0.02% (v/v) DMSO vehicle control. After culturing for five days, the viability and cytotoxicity was determined with the Live/dead assay (Life Technologies) according to the manufacturer's instructions. Briefly, the media were aspirated and the cells were treated with 4 μM Calcein-AM and 8 μM Ethidium homodimer-1 diluted in (D)MEM/F12 for 30 minutes at 37°C. Subsequent imaging was performed with an IX81 microscope (Olympus, Center Valley, PA, USA) running Slide Book 5.0 software (Intelligent Imaging Innovations, Denver, CO, USA).
# [6] = test system: PE1007070 cells; test: Live/dead assay, monolayer; format: cell-based, human; details: 20 μM, five days, vs DMSO
# Description: as §2
# [7] = Solubility (stated property); format: physicochemical
smiles,measurement,setting,value
COc1cc(OC)cc(C(C)c2ccc(NC(=O)OC(C)(C)C)cc2)c1 (stereo not shown) [C-6],percentage of cells in G1/G0,[1],increased
same,percentage of cells in G1/G0,[2],increased
same,cell cycle profile,[3],did not show a statistically significant difference
same,percentage of cells in G1/G0,[4],increased
same,morphology and dead (ethidium positive) cells,[5],did not induce a gross morphological phenotype in the hTERT-HMECs or a significant increase in dead (ethidium bromide positive) cells
same,number of dead cells,[6],led to an increase in the number of dead cells
same,solubility,[7],poor solubility
